Source: patent US8324264B1, “Inhibitors of bacterial biofilms and related methods” (Sequoia Sciences, Inc., priority 2011, dated 2012)
Converted amounts (≈) assume the structure as drawn. Where two headings read alike, the source gives them in different places.

What was measured:
P. aeruginosa biofilms = test: Biofilm growth assay (spreading biofilm on semi-solid agar), P. aeruginosa; format: cell-based; conditions: Pseudomonas aeruginosa, read-out: P. aeruginosa: concentration that reduces the area of the spreading biofilm by greater than or equal to 85%
Outline: (§1)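 Values are compound concentrations (μg/ml) that cut the spreading-biofilm zone area by ≥85% relative to negative controls after overnight 37 °C growth from 5 μL central inoculum. E. coli plates: LB, 0.6% agar, 0.5% glucose; P. aeruginosa plates: M8 agar plus 0.2% glucose, 100 μM CaCl2, 1 mM MgSO4, 0.5% Casamino acids.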

E. coli biofilms = test: Biofilm growth assay (spreading biofilm on semi-solid agar), E. coli; format: cell-based; conditions: Escherichia coli, read-out: E. coli: concentration that reduces the area of the spreading biofilm by greater than or equal to 85%
Outline: as §1

[1] = biofilm growth assay, overnight 37° C., vs negative controls, Tables 1-5

SMILES	melting point	IC85 (P. aeruginosa biofilms; [1])	IC85 (E. coli biofilms; [1])	IC85 (P. aeruginosa biofilms)	IC85 (E. coli biofilms)
C=CC1=C2[C@@H]3CC(C)(C)CC[C@]3(C(=O)O)CC[C@@]2(C)[C@]2(C)CC[C@H]3C(C)(C)c4n[nH]c(N)c4C[C@]3(C)C2C1 (stereo partly drawn) [Example 13, (4aS,6aS,6bR,8aR,13aR,15bS)-12-Amino-2,2,6a,6b,9,9,13a-heptamethyl-15-vinyl-2,3,4,4a,5,6,6a,6b,7,8,8a,9,11,13,13a,13b,14,15b-octadecahydro-1H-chryseno[1,2-f]indazole-4-a-carboxylic acid]	> 300 °C	0.5 mg/L (≈ 0.962 µM)	1 mg/L (≈ 1.92 µM)		
CN(C)c1cc(C2=C3[C@@H]4CC(C)(C)CC[C@]4(C(=O)O)CC[C@@]3(C)[C@]3(C)CC[C@H]4C(C)(C)c5n[nH]c(N)c5C[C@]4(C)C3C2)ccn1 (stereo partly drawn) [Example 22, (4aS,6aS,6bR,8aR,13aR,15bS)-12-Amino-15-(2-(dimethylamino)pyridin-4-yl)-2,2,6a,6b,9,9,13a-heptamethyl-2,3,4,4a,5,6,6a,6b,7,8,8a,9,11,13,13a,13b,14,15b-octadecahydro-1H-chryseno[1,2-f]indazole-4-a-carboxylic acid]	> 300 °C	1 mg/L (≈ 1.63 µM)	> 2 mg/L		
CC1(C)CC[C@]2(C(=O)O)CC[C@]3(C)C(=C(c4c[nH]c5ccccc45)CC4[C@@]5(C)Cc6c(n[nH]c6N)C(C)(C)[C@@H]5CC[C@]43C)[C@@H]2C1 (stereo partly drawn) [Example 8, (4aS,6aS,6bR,8aR,13aR,15bS)-12-Amino-15-(1H-indol-3-yl)-2,2,6a,6b,9,9,13a-heptamethyl-2,3,4,4a,5,6,6a,6b,7,8,8a,9,11,13,13a,13b,14,15b-octadecahydro-1H-chryseno[1,2-f]indazole-4-a-carboxylic acid]	> 300 °C (dec.)	0.25 mg/L (≈ 0.411 µM)	1 mg/L (≈ 1.64 µM)		
C/C=C/C1=C2[C@@H]3CC(C)(C)CC[C@]3(C(=O)O)CC[C@@]2(C)[C@]2(C)CC[C@H]3C(C)(C)c4n[nH]c(N)c4C[C@]3(C)C2C1 (stereo partly drawn) [Example 5, (4aS,6aS,6bR,8aR,13aR,15bS)-12-Amino-2,2,6a,6b,9,9,13a-heptamethyl-15-((E)-prop-1-enyl)-2,3,4,4a,5,6,6a,6b,7,8,8a,9,11,13,13a,13b,14,15b-octadecahydro-1H-chryseno[1,2-f]indazole-4-a-carboxylic acid]	> 300 °C	0.5 mg/L (≈ 0.937 µM)	1 mg/L (≈ 1.87 µM)		
CC1(C)CC[C@]2(C(=O)O)CC[C@]3(C)C(=C(c4cc[nH]c4)CC4[C@@]5(C)Cc6c(n[nH]c6N)C(C)(C)[C@@H]5CC[C@]43C)[C@@H]2C1 (stereo partly drawn) [Example 6, (4aS,6aS,6bR,8aR,13aR,15bS)-12-Amino-2,2,6a,6b,9,9,13a-heptamethyl-15-(1H-pyrrol-3-yl)-2,3,4,4a,5,6,6a,6b,7,8,8a,9,11,13,13a,13b,14,15b-octadecahydro-1H-chryseno[1,2-f]indazole-4-a-carboxylic acid]	> 300 °C	0.125 mg/L (≈ 0.224 µM)	0.25 mg/L (≈ 0.447 µM)		
CC1(C)CC[C@]2(C(=O)Nc3nnn[nH]3)CC[C@]3(C)C(=CCC4[C@@]5(C)Cc6c(n[nH]c6N)C(C)(C)C5CC[C@]43C)C2C1 (stereo partly drawn) [Compound 61, (4aS,6aS,6bR,13aR)-12-Amino-2,2,6a,6b,9,9,13a-heptamethyl-N-(1H-tetrazol-5-yl)-2,3,4,4a,5,6,6a,6b,7,8,8a,9,11,13,13a,13b,14,15b-octadecahydro-1H-chryseno[1,2-f]indazole-4-a-carboxamide]	> 300 °C			0.5 mg/L (≈ 0.892 µM)	0.5 mg/L (≈ 0.892 µM)
CC1(C)CC[C@]2(C(=O)Sc3nnc(N)[nH]3)CC[C@]3(C)C(=C(c4cccnc4)CC4[C@@]5(C)Cc6c(n[nH]c6N)C(C)(C)[C@@H]5CC[C@]43C)[C@@H]2C1 (stereo partly drawn) [Compound 91, (4aS,6aS,6bR,8aR,13aR,15bS)—S-5-Amino-4H-1,2,4-triazol-3-yl 12-amino-2,2,6a,6b,9,9,13a-heptamethyl-15-(pyridin-3-yl)-2,3,4,4a,5,6,6a,6b,7,8,8a,9,11,13,13a,13b,14,15b-octadecahydro-1H-chryseno[1,2-f]indazole-4-a-carbothioate]	> 300 °C	1 mg/L (≈ 1.49 µM)	1 mg/L (≈ 1.49 µM)		
CC1(C)CC[C@]2(C(=O)O)CC[C@]3(C)C(=C(c4cccnc4)CC4[C@@]5(C)Cc6c(n[nH]c6N)C(C)(C)[C@@H]5CC[C@]43C)[C@@H]2C1 (stereo partly drawn) [Example 12, (4aS,6aS,6bR,8aR,13aR,15bS)-12-Amino-2,2,6a,6b,9,9,13a-heptamethyl-15-(pyridin-3-yl)-2,3,4,4a,5,6,6a,6b,7,8,8a,9,11,13,13a,13b,14,15b-octadecahydro-1H-chryseno[1,2-f]indazole-4-a-carboxylic acid]	> 300 °C	0.5 mg/L (≈ 0.876 µM)	1 mg/L (≈ 1.75 µM)		

Now from value to molecule, other results behind:

melting point	SMILES	IC85 (P. aeruginosa biofilms; [1])	IC85 (E. coli biofilms; [1])	IC85 (P. aeruginosa biofilms)	IC85 (E. coli biofilms)
> 300 °C	CC1(C)CC[C@]2(C(=O)Nc3cc(N)n[nH]3)CC[C@]3(C)C(=CCC4[C@@]5(C)Cc6c(n[nH]c6N)C(C)(C)C5CC[C@]43C)C2C1 (stereo partly drawn) [Compound 69, (4aS,6aS,6bR,13aR)-12-amino-N-(3-amino-1H-pyrazol-5-yl)-2,2,6a,6b,9,9,13a-heptamethyl-2,3,4,4a,5,6,6a,6b,7,8,8a,9,11,13,13a,13b,14,15b-octadecahydro-1H-chryseno[1,2-f]indazole-4-a-carboxamide]	1 mg/L (≈ 1.74 µM)	1 mg/L (≈ 1.74 µM)		
> 300 °C	CC1(C)CC[C@]2(C(=O)Nc3cc(S)n[nH]3)CC[C@]3(C)C(=CCC4[C@@]5(C)Cc6c(n[nH]c6N)C(C)(C)C5CC[C@]43C)C2C1 (stereo partly drawn) [Compound 79, (4aS,6aS,6bR,13aR)-12-Amino-N-(3-mercapto-1H-pyrazol-5-yl)-2,2,6a,6b,9,9,13a-heptamethyl-2,3,4,4a,5,6,6a,6b,7,8,8a,9,11,13,13a,13b,14,15b-octadecahydro-1H-chryseno[1,2-f]indazole-4-a-carboxamide]	0.25 mg/L (≈ 0.423 µM)	0.5 mg/L (≈ 0.846 µM)		
238 to 240 °C	CC1(C)CC[C@]2(c3n[nH]c(O)c3CCN)CC[C@]3(C)C(=C(c4ccoc4CN4CCOCC4)CC4[C@@]5(C)Cc6c(n[nH]c6N)C(C)(C)[C@@H]5CC[C@]43C)[C@@H]2C1 (stereo partly drawn) [Compound 92, 3-((4aS,6aS,6bR,8aR,13aR,15bS)-12-Amino-2,2,6a,6b,9,9,13a-heptamethyl-15-(2-(morpholinomethyl)furan-3-yl)-2,3,4,4a,5,6,6a,6b,7,8,8a,9,11,13,13a,13b,14,15b-octadecahydro-1H-chryseno[1,2-f]indazol-4-a-yl)-4-(2-aminoethyl)-1H-pyrazol-5-ol]	0.5 mg/L (≈ 0.676 µM)	2 mg/L (≈ 2.7 µM)		
270 to 280 °C (dec.)	CC1(C)CC[C@]2(C(=O)O)CC[C@]3(C)C(=C(c4c[nH]c(CN5CCOCC5)c4)CC4[C@@]5(C)Cc6c(n[nH]c6N)C(C)(C)[C@@H]5CC[C@]43C)[C@@H]2C1 (stereo partly drawn) [Example 9, (4aS,6aS,6bR,8aR,13aR,15bS)-12-Amino-2,2,6a,6b,9,9,13a-heptamethyl-15-(5-(morpholinomethyl)-1H-pyrrol-3-yl)-2,3,4,4a,5,6,6a,6b,7,8,8a,9,11,13,13a,13b,14,15b-octadecahydro-1H-chryseno[1,2-f]indazole-4-a-carboxylic acid]	0.5 mg/L (≈ 0.76 µM)	1 mg/L (≈ 1.52 µM)		
> 300 °C	CC1(C)CC[C@]2(c3n[nH]c(O)c3N3CCNCC3)CC[C@]3(C)C(=CCC4[C@@]5(C)Cc6c(n[nH]c6N)C(C)(C)C5CC[C@]43C)C2C1 (stereo partly drawn) [Compound 90, 3-((4aS,6aS,6bR,13aR)-12-Amino-2,2,6a,6b,9,9,13a-heptamethyl-2,3,4,4a,5,6,6a,6b,7,8,8a,9,11,13,13a,13b,14,15b-octadecahydro-1H-chryseno[1,2-f]indazol-4-a-yl)-4-(piperazin-1-yl)-1H-pyrazol-5-ol]	0.5 mg/L (≈ 0.812 µM)	1 mg/L (≈ 1.62 µM)		
> 300 °C	CC1(C)CC[C@]2(c3n[nH]c(O)c3CCNC(N)=O)CC[C@]3(C)C(=CCC4[C@@]5(C)Cc6c(n[nH]c6N)C(C)(C)C5CC[C@]43C)C2C1 (stereo partly drawn) [Compound 87, 1-(2-(3-((4aS,6aS,6bR,13aR)-12-Amino-2,2,6a,6b,9,9,13a-heptamethyl-2,3,4,4a,5,6,6a,6b,7,8,8a,9,11,13,13a,13b,14,15b-octadecahydro-1H-chryseno[1,2-f]indazol-4-a-yl)-5-hydroxy-1H-pyrazol-4-yl)ethyl)urea]	0.5 mg/L (≈ 0.809 µM)	1 mg/L (≈ 1.62 µM)		
195 to 210 °C (dec.)	Cn1nc([C@]23CCC(C)(C)CC2C2=CCC4[C@@]5(C)Cc6c(n[nH]c6N)C(C)(C)C5CC[C@@]4(C)[C@]2(C)CC3)cc1N (stereo partly drawn) [Compound 72, (4aS,6aS,6bR,8aR,13aR,15bS)-4-a-(5-Amino-1-methyl-1H-pyrazol-3-yl)-2,2,6a,6b,9,9,13a-heptamethyl-2,3,4,4a,5,6,6a,6b,7,8,8a,9,11,13,13a,13b,14,15b-octadecahydro-1H-chryseno[1,2-f]indazol-12-amine]	1 mg/L (≈ 1.84 µM)	> 2 mg/L		
